US8921403B2, “Combinations of imazalil and hydroxypyridones” (Janssen Pharmaceutica, NV, priority 2007, dated 2014)

Test system: Staphylococcus aureus (g+) LMG 8064
Assay: poison plate assay (bacteria)
Assay type: cell-based
Details: LMG8064, 120 h, ppm total active ingredient, Tryptose Agar, 27° C., 70% relative humidity, growth evaluated after five days, ratio % (I) + % (II-a), read-out: MIC-values (minimum inhibitory concentration) in ppm
Text: When the Synergy Index is greater than 1.0, antagonism is indicated. When the SI is equal to 1.0, additivity is indicated.

C=CCOC(Cn1ccnc1)c1ccc(Cl)cc1Cl (stereo not shown) [100 + 0]
MIC: 25 µg/mL
